These results are taken from PMC11087554, “The STING agonist IMSA101 enhances chimeric antigen receptor T cell function by inducing IL-18 secretion” (Nature Communications, 2024).

The term EC50 denotes the concentration giving half of the maximal effect. A low value points to a more potent agent.

The target in the experiment is T1, STING (stimulator of interferon genes) (Homo sapiens, UniProt Q86WV6).
T1 construct: gene STING1; endogenous STING in THP1-ISG-luc cells
Put plainly: THP1-ISG-luc ISRE reporter assay with PFO permeabilisation; IFN-beta response lost in STING-KO THP1 cells. Format: cell-based. For orientation: In a reporter assay the amount or activity of a reporter protein is the signal.

T1 sequence (Q86WV6 whole entry, looked up): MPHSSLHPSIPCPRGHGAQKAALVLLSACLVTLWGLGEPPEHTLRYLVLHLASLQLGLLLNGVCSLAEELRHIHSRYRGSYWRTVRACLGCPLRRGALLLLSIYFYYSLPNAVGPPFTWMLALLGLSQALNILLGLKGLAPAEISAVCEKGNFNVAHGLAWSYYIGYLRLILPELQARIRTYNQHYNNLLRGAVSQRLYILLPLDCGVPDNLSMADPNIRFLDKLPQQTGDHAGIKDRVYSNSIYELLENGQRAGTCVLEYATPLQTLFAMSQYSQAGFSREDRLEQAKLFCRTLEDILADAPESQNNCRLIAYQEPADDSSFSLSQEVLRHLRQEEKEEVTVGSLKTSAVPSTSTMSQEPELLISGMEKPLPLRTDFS

IMSA101 registered an EC50 of 20 to 30 nM.
